From publication PMC2990756, “Quantitative High-Throughput Screening Identifies 8-Hydroxyquinolines as Cell-Active Histone Demethylase Inhibitors” (PLoS ONE, 2010)
Read-outs that look alike come from different tables or passages of the source.

Columns and labels:
Assay type in all cases: biochemical
[1] = molecular target: T1, formaldehyde dehydrogenase (FDH) (Pseudomonas putida, UniProt P46154); test: FDH coupling enzyme counterscreen; conditions: Table S1, FDH counterscreen; for IC50: unit not in table, from Figure 2, read-out: qHTS Data: jmjd2e fdh IC50
T1 construct: purchased Sigma-Aldrich
Excerpt: Dimethylsulfoxide certified ACS grade (DMSO) was from Fisher, Inc. HEPES buffer was obtained from Gibco. […] Black solid-bottom 1,536-well assay plates were from Greiner Bio-One (Monroe, NC).

JMJD2E = molecular target: T2, JMJD2E (Homo sapiens, UniProt B2RXH2); test: JMJD2E FDH-coupled assay under low and high iron conditions (iron chelation profile); parameters: The catalytic domain of human JMJD2E (residues 1–337); His6 (N); made in house; host or cells: E. coli; conditions: Table S1; for IC50: unit not in table, from Figure 2
T2 sequence (B2RXH2 1-337): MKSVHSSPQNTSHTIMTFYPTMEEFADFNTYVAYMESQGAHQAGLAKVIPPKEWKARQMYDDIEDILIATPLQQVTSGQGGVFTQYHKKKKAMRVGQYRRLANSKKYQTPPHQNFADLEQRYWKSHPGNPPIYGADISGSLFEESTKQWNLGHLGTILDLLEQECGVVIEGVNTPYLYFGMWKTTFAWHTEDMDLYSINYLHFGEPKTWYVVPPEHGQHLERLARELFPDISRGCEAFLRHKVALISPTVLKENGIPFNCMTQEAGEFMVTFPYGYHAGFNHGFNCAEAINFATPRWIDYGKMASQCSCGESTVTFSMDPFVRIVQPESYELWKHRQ
Description: The prioritized compounds were also evaluated in the screening assay using two different ferrous ion concentrations (termed high iron and low iron, respectively), in order to assess their propensity for iron chelation.
The ratio of IC50 values under high iron to low iron was calculated for each compound.

JMJD2E (KDM4E) = molecular target: T3, JMJD2E (KDM4E) (Homo sapiens, UniProt B2RXH2); test: qHTS fluorescence FDH-coupled JMJD2E demethylase assay
T3 construct: The catalytic domain of human JMJD2E (residues 1–337); His6 (N); made in house; host or cells: E. coli
T3 sequence (B2RXH2 1-337): T2 sequence (B2RXH2 1-337)
Excerpt: The oxidation of formaldehyde is coupled to the reduction of NAD^+ to NADH, which is monitored by fluorescence spectroscopy. […] To this end, initial screening hits were filtered by a combination of cheminformatics (to exclude low-confidence inhibitors and autofluorescent false positives), counterscreening against the coupled-assay component formaldehyde dehydrogenase (FDH), and orthogonal direct detection of inhibition of demethylation by mass spectrometry ( Figure 1 ).
Reactions were initiated with 1 µL addition of peptide substrate solution containing final concentrations of 10 µM FAS, 50 µM 2OG, 0.25 U/mL FDH, 0.25 mM NAD^+, and 50 µM peptide substrate (ARK(me3)STGGK). A ViewLux imager (PerkinElmer, Waltham, MA) was used to measure NADH fluorescence (λex 340 nm, λem 450 nm) immediately after substrate addition and following 30 min incubation at room temperature. To record any systematic drifts in assay behavior (signal window and noise), assay plates containing no library compounds but only DMSO as a vehicle control were tested periodically (every ∼60 plates) throughout the screen.
Data were normalized to the basal response (0% activity) in the absence of enzyme and the maximal response (100% activity) in the absence of compound. Using the Hill equation, dose-response curves and IC50 values were automatically generated for each compound tested with software developed internally (www.ncgc.nih.gov/pub/openhts/curvefit/). […] The initial well fluorescence (first kinetic read) associated with each sample was stored in a database and used in the cheminformatics analysis to identify autofluorescent compounds interfering with the assay signal.

[2] = high iron, head says 20 µM FAS, read-out: qHTS Data: jmjd2e fas20um IC50
[3] = low iron 2.5 µM FAS, read-out: qHTS Data: jmjd2e fas2.5um IC50
[4] = Table S1, unit not in table, from Figure 2, read-out: qHTS Data: jmjd2e IC50

T1 sequence (P46154 whole entry): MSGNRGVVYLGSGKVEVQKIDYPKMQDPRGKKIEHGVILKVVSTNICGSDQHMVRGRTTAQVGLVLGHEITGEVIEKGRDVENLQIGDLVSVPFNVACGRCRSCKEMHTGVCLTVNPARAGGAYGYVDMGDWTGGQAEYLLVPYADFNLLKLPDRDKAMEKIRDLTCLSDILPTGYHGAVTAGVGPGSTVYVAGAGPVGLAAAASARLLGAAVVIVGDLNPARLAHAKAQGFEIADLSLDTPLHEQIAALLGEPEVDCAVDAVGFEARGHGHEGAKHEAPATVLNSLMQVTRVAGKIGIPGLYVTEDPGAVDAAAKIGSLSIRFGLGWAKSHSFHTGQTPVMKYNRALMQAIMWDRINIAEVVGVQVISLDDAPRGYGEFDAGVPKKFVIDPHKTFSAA

Row | SMILES | qHTS Data: jmjd2e fdh CurveClass [1] | IC50 (JMJD2E; [2]) | IC50 (JMJD2E; [3]) | IC50 (JMJD2E (KDM4E); [4]) | qHTS Data: jmjd2e fas2.5um Curve comment (JMJD2E; low iron 2.5 µM FAS) | qHTS Data: jmjd2e fas20um CurveClass (JMJD2E; high iron) | IC50 [1] | IC50 (JMJD2E (KDM4E); Figure 3, substituted 8-hydroxyquinolines against JMJD2E, read-out: IC50 /μM (qHTS IC50, FDH-coupled assay))
1 | O=C(OCC1O[C@@H](OC(=O)c2cc(O)c(O)c(O)c2)[C@@H](OC(=O)c2cc(O)c(O)c(O)c2)[C@@H](OC(=O)c2cc(O)c(O)c(O)c2)[C@@H]1OC(=O)c1cc(O)c(O)c(O)c1)c1cc(O)c(O)c(O)c1 (some centres unmarked) [compound 22405492] | Inactive | 14.1 µM | 1.12 µM | 3.16 µM |  |  |  | 
2 | CCN(CC)c1ccc(N=Cc2c(C)[nH]c3ccccc23)cc1 [compound 22412852] | Inactive | 7.94 µM | 12.6 µM | 0.79 µM | Poor quality curve |  |  | 
3 | Cc1ccc(O)c(N=NC2=C(O)CC(C)(C)CC2=O)c1 [compound 22414549] | Inactive |  | 5.62 µM | 0.56 µM |  | Inactive |  | 
4 | COc1ccc(-n2c(C)cc(/C=N/Nc3nnc(C)n3N)c2C)cc1.Cl [compound 22416865] | Poor quality curve | 5.01 µM | 5.01 µM | 0.71 µM |  |  | 28.2 µM | 
5 | CCN1/C(=C\c2ccc3ccccc3[n+]2CC)Sc2cc(C)ccc21.[I-] [compound 24782097] | Poor quality curve | 14.1 µM | 17.8 µM | 1.41 µM | Poor quality curve | Poor quality curve | 22.4 µM | 
6 | O=C(CSc1ncn[nH]1)CSc1ncn[nH]1 [compound 24783149] |  |  | 6.31 µM | 3.55 µM |  | Inactive | 1 µM | 
7 | Cc1ccnc(NC(c2cccnc2)c2ccc3cccnc3c2O)c1 (centres unmarked) [compound 24794739] | Poor quality curve | 14.1 µM | 11.2 µM | 5.62 µM |  |  | 0.03 µM | 
8 | O=C(CC1Sc2ncnn2C1=O)Nc1ccc(Cl)cc1 (centres unmarked) [compound 24795544] |  | 7.94 µM | 2 µM | 1.58 µM |  |  | 0.25 µM | 
9 | Oc1ccc(NCc2cccc(OCc3ccccc3)c2)cc1 [compound 24795995] | Inactive | 35.5 µM | 14.1 µM | 4.47 µM |  |  |  | 
10 | Cc1cc(C(=O)NNC(=S)Nc2ccccc2)nn1C [compound 24796479] | Inactive | 7.94 µM | 7.08 µM | 8.91 µM |  |  |  | 
11 | CCOC(=O)c1ccc(CC(=O)c2ccc(O)c(O)c2O)o1 [compound 24797852] | Inactive | 10 µM | 1.41 µM | 3.16 µM |  |  |  | 
12 | CN(C)c1ccnc(C(=O)O)c1 [compound 24815512] | Inactive | 15.8 µM |  | 2.82 µM | Inactive | Poor quality curve |  | 
13 | NC(=O)c1ccc(-n2nnnc2SCC(=O)c2ccc(O)c(O)c2)cc1 [compound 24821381] | Inactive |  | 7.94 µM | 0.71 µM |  | Inactive |  | 
14 | Oc1c(C(Nc2nccs2)c2ccc(C(F)(F)F)cc2)ccc2cccnc12 (centres unmarked) [compound 24832893] | Inactive | 12.6 µM | 28.2 µM | 3.55 µM |  |  |  | 
15 | CN(C)S(=O)(=O)c1cccc(-n2sc3ccccc3c2=O)c1 [compound 24834029] | Poor quality curve | 1.26 µM | 4.47 µM | 3.55 µM |  |  | 7.94 µM | 
16 | Cc1ccc(C)c(S(=O)(=O)N2CCN(Cc3ccc(O)c4ncccc34)CC2)c1 [compound 24838962] | Inconclusive |  | 10 µM | 3.55 µM |  | Inactive |  | 
17 | C[C@@H]1Cc2c(O)c(O)cc(O)c2C(=O)O1 [compound 26657786] | Inactive |  | 3.55 µM | 2 µM |  | Inactive |  | 
18 | COc1cc(/C=N/Nc2nncn2N)ccc1OCc1c(C)no[n+]1[O-] [compound 26657989] | Inactive |  | 4.47 µM | 0.5 µM |  | Inactive |  | 
19 | O=C(CCc1ccccc1)NCC(=O)N/N=C/c1ccc(O)cc1O [compound 26660953] | Poor quality curve | 4.47 µM | 4.47 µM | 6.31 µM |  |  | 17.8 µM | 
20 | CC(C)c1ccccc1NC(=O)CNCCc1ccc(C(F)(F)F)cc1.O=C(O)C(=O)O [compound 26661422] | Inactive |  | 28.2 µM | 3.16 µM |  | Inactive |  | 
21 | C/C(=N\Nc1ccc2nncn2n1)c1ccccn1 [compound 26664046] | Poor quality curve | 8.91 µM | 8.91 µM | 10 µM |  |  | 35.5 µM | 
22 | O=Cc1ccc(O)c2ncccc12 [compound 26664581] | Inactive | 56.2 µM | 7.08 µM | 3.16 µM |  | Poor quality curve |  | 3.2 µM
23 | O=c1c(O)cccc2cc(O)c(O)c(O)c12 [compound 26665710] | Poor quality curve | 12.6 µM | 2.24 µM | 7.94 µM |  |  | 6.31 µM | 
24 | O=c1cc2c(=O)oc3cc(O)c(O)oc3c2c(O)c1O [compound 26666750] | Inactive | 15.8 µM | 1.78 µM | 3.98 µM |  |  |  | 
25 | COc1ccc(Cn2c(O)c(/C=N/NC(=O)c3ccncc3)c(=O)[nH]c2=O)cc1 [compound 26667135] | Poor quality curve | 8.91 µM | 8.91 µM | 7.94 µM |  |  | 14.1 µM | 
26 | Cc1cccc(OCC(=O)NCC(=O)N/N=C/c2ccc(O)cc2O)c1 [compound 26671311] | Poor quality curve |  | 4.47 µM | 3.16 µM |  | Inactive | 0.25 µM | 
27 | O=C1C=C(O)c2cccc(O)c2C1=O [compound 26724134] | Inactive | 19.9 µM | 14.1 µM | 7.94 µM | Poor quality curve |  |  | 
28 | N#C/C(=C\c1cc(O)c(O)c(O)c1)C(N)=O [compound 26725225] | Poor quality curve | 8.91 µM | 2.24 µM | 1 µM |  |  | 39.8 µM | 
29 | O=C(/C=C/c1ccccc1)NC(=S)NNC(=O)c1cnccn1 [compound 26725782] | Poor quality curve | 7.08 µM | 7.08 µM | 8.91 µM |  |  | 35.5 µM | 
